Assay results reported in patent publication EP4650353A1 (Shanghai Institute of Materia Medica, Chinese Academy of …, priority 2023, dated 2024).

Key:
human GLP-1 receptor = molecular target: T1, human GLP-1 receptor (Homo sapiens, UniProt P43220); experiment: GLP-1 receptor-mediated agonist activity: cAMP level in hGLP-1R/HEK293 cell line (HTRF); type: cell-based; details: cAMP levels in hGLP-1R/HEK293 cell line; Table 1; read-out: determined EC50
T1 construct: HA (N); expressed in transfected cells

[1] = tested on: hGLP-1 receptor knock-in mice; experiment: Mouse food intake suppression experiment (compound 76-1); type: in vivo; details: 10 or 30 mg/kg oral
Protocol: Genetically engineered hGLP-1R gene knock-in mice, male, 8-10 weeks old, specific pathogen free (SPF) grade, were purchased from Biocytogen Jiangsu Gene Biotechnology Co., Ltd. All experimental animals were housed in the SPF-level environment of the National Compound Sample Library animal room, with a temperature of 24±2°C, a relative humidity of 40-60%RH, an air cleanliness level of 7, and a day and night light-dark cycle of 12h/12h; they were continuously supplied with cobalt-60 radiation-sterilized complete mouse granular feed (Shanghai Shilin Biotechnology Co., Ltd., maintenance feed for rats and mice), and were allowed to drink tap water (sterilized with high-pressure steam) without interruption, and were allowed to drink it freely. The cages were transparent polyetherimide cages (Suzhou Fengshi Experimental Animal Equipment Co., Ltd., CP-8 mouse cages), and the bedding was corn cobs (Tezhou Gumei Agricultural Technology Co., Ltd., used after high-pressure steam sterilization). There were 3-5 animals in each cage, and the cage card indicated the IACUC approval number, experiment number, experiment start time, person in charge, experimenter, animal source, group and animal number. The purchased mice were adapted to this breeding environment for at least 7 days before being used in experiments. […]

[2] = tested on: hGLP-1 receptor knock-in mice; experiment: Long-term administration in high-fat diet fed hGLP-1R mice for weight loss; type: in vivo; details: ammonium salt
Protocol: Genetically engineered hGLP-1R gene knock-in mice, male, 8-10 weeks old, specific pathogen free (SPF) grade, were purchased from Biocytogen Jiangsu Gene Biotechnology Co., Ltd. All experimental animals were housed in the SPF-level environment of the National Compound Sample Library animal room, with a temperature of 24±2°C, a relative humidity of 40-60%RH, an air cleanliness level of 7, and a day and night light-dark cycle of 12h/12h; they were continuously supplied with cobalt-60 radiation-sterilized complete mouse granular feed (Shanghai Shilin Biotechnology Co., Ltd., maintenance feed for rats and mice), and were allowed to drink tap water (sterilized with high-pressure steam) without interruption, and were allowed to drink it freely. The cages were transparent polyetherimide cages (Suzhou Fengshi Experimental Animal Equipment Co., Ltd., CP-8 mouse cages), and the bedding was corn cobs (Tezhou Gumei Agricultural Technology Co., Ltd., used after high-pressure steam sterilization). There were 3-5 animals in each cage, and the cage card indicated the IACUC approval number, experiment number, experiment start time, person in charge, experimenter, animal source, group and animal number. The purchased mice were adapted to this breeding environment for at least 7 days before being used in experiments. The animal use methods in this study were approved by the IACUC Committee of the Shanghai Institute of Materia Medica.
The mice were weighed every day, and 24 hours after the last administration, the body fat and muscle content of the mice were detected using a Bruker desktop nuclear magnetic resonance spectrometer (model LF90II). • (4) Experimental results

hGLP-1R transgenic mice = experiment: Hypoglycemic effect of compound 76-1 (oral glucose tolerance test); type: in vivo
Protocol: Mouse model: hGLP-1R transgenic mice, 6 female mice per experimental group.
Experimental procedure: The mice were starved overnight, and the blood sugar in the tail of the mice was measured. 30 minutes after oral administration, the blood sugar was measured again as the blood sugar at zero point. Then, 2g/kg of sugar was given orally. 15min, 30min, 60min, and 90min after sugar administration, the blood sugar was measured using a blood glucose meter.

β-arrestin 1 = experiment: NanoBiT recruitment of β-arrestin 1 by GLP-1R in HEK293 cells; type: cell-based, human; details: endogenous GLP-1 = 100%; Figure 1, n=3
Text: (§1) The Promega NanoBiT protein-protein reaction system was used to detect the recruitment of β-arrestin 1 and β-arrestin 2 by GLP-1R. The NanoBit Protein-Protein Reaction System was a dual-subunit system based on NanoLuc luciferase that could be used to detect protein-protein interactions in cells. The LgBiT (17.6 kDa) and SmBiT (11 amino acids) subunits were fused to the proteins of interest, respectively. When the proteins of interest interact, the two subunits came into close proximity to form an enzyme with catalytic activity, which could catalyze the luminescence of the luciferase substrate. Firstly, the human GLP-1R gene was connected to the N-terminus of LgBit, the β-arrestin 1/2 gene was cloned to the C-terminus of SmBit, and the fusion protein was introduced into the pcDNA3.0 vector to construct plasmids expressing hGLP-1R-LgBit and SmBit-β-arrestin 1/2 fusion proteins. The hGLP-1R-LgBit plasmid and SmBit-β-arrestin 1 (or SmBit-β-arrestin 2) plasmid were co-transfected into HEK293 cells at a ratio of 1 µg plasmid/2×10^6 cells.

β-arrestin 2 = experiment: NanoBiT recruitment of β-arrestin 2 by GLP-1R in HEK293 cells; type: cell-based, human; details: endogenous GLP-1 = 100%; Figure 2, n=3
Text: as §1

T1 sequence (P43220 24-463): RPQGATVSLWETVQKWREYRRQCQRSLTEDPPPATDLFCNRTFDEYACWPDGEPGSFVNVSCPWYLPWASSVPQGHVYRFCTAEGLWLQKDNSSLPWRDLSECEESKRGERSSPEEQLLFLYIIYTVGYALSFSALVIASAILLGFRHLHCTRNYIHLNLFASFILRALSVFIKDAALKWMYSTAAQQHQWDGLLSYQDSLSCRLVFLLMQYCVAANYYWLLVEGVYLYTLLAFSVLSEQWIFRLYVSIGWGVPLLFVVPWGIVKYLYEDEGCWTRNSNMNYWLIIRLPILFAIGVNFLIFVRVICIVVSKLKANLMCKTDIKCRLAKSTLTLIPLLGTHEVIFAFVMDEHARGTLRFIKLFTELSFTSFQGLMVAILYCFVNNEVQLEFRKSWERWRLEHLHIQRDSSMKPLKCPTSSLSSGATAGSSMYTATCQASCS

[2H]C([2H])([2H])C([2H])([2H])Oc1cc(C(=O)O)cc2c1nc(CN1CCN(c3cccc4c3O[C@@](C)(c3ccc(Cl)cc3F)O4)C=N1)n2C[C@@H]1CCO1 [Compound 76-1, 2-((4-((S)-2-(4-chloro-2-fluorophenyl)-2-methylbenzo[d][1,3]dioxol-4-yl)-5,6-dihydro-1,2,4-triazin-1(4H)-yl)methyl)-4-(ethoxy-d5)-1-(((S)-oxetan-2-yl)methyl)-1H-benzo[d]imidazole-6-carboxylic acid]
EC50 (human GLP-1 receptor): 1.6 pM
effect on food intake compared with positive control PF-06882961 ammonium salt at the same dose [1]: better than the positive control PF-06882961 ammonium salt
food intake ([1]; ammonium salt, within 0 to 12 hours, fasted 6 h): significantly inhibit the food intake
weight gain of HFD-fed mice ([2]; 30 mg/kg by gavage once a day, 15 days): effectively inhibit the weight gain
reduce body weight compared with the blank control group ([2]; 30 mg/kg once a day, after 15 days of administration, HFD): 20.4%
body fat and lean (muscle) content change trend in HFD mice ([2]; 30 mg/kg, after 15 days of administration): effectively inhibit this change trend
area under the blood glucose curve (AUC) (hGLP-1R transgenic mice; ammonium salt, 0.1, 0.3 mg/kg oral): dose-dependently reduce
blood glucose level (hGLP-1R transgenic mice; ammonium salt, 0.1, 0.3 mg/kg oral, 30 min before 2 g/kg sugar): dose-dependently reduce
effective dose (hGLP-1R transgenic mice; ammonium salt, oral, oral glucose tolerance test): ≤ 0.1 mg/kg

CC[C@H](C)[C@H](NC(=O)[C@H](Cc1ccccc1)NC(=O)[C@H](CCC(=O)O)NC(=O)[C@H](CCCCN)NC(=O)[C@H](C)NC(=O)[C@H](C)NC(=O)[C@H](CCC(N)=O)NC(=O)CNC(=O)[C@H](CCC(=O)O)NC(=O)[C@H](CC(C)C)NC(=O)[C@H](Cc1ccc(O)cc1)NC(=O)[C@H](CO)NC(=O)[C@H](CO)NC(=O)[C@@H](NC(=O)[C@H](CC(=O)O)NC(=O)[C@H](CO)NC(=O)[C@@H](NC(=O)[C@H](Cc1ccccc1)NC(=O)[C@@H](NC(=O)CNC(=O)[C@H](CCC(=O)O)NC(=O)[C@H](C)NC(=O)[C@@H](N)Cc1c[nH]cn1)[C@@H](C)O)[C@@H](C)O)C(C)C)C(=O)N[C@@H](C)C(=O)N[C@@H](Cc1c[nH]c2ccccc12)C(=O)N[C@@H](CC(C)C)C(=O)N[C@H](C(=O)N[C@@H](CCCCN)C(=O)NCC(=O)N[C@@H](CCCNC(=N)N)C(N)=O)C(C)C [GLP-1]
maximum agonistic effect (Emax) recruiting β-arrestin 1 (β-arrestin 1): 100%
maximum agonistic effect (Emax) recruiting β-arrestin 2 (β-arrestin 2): 100%
